Results as given in US20110176998A1, “IMAGING AND THERAPY OF VIRUS-ASSOCIATED TUMORS” (THE JOHNS HOPKINS UNIVERSITY, priority 2007, published 2011).
Several values for one entry are separate records, joined by “and”; a condition that tells them apart may be missing. Equal values may be shown once.

What was measured:
[1] = in vivo; cited from earlier work
[2] = serum and whole blood; 24 hour period; cited from earlier work
[3] = cited from earlier work
[4] = earlier clinical use of FIAU (toxicity); type: in vivo, humans; conditions: conservatively estimated
Experimental: With regard to the potential clinical use of BETR therapy, FIAU-associated toxicity warrants discussion. FIAU was previously investigated as an antiviral agent. […] In those trials, treatment for less than four weeks with a cumulative dose less than 200 mg was not associated with either clinical or biochemical evidence of toxicity. Thus, the “no-effect dose” of FIAU might be conservatively estimated to be on the order of 0.1 mg/kg per administration. […] Extrapolating from xenograft experiments, a radiotherapeutic effect is likely to be achieved at doses of FIAU that are orders of magnitude times less than the no-effect FIAU dose in humans.

[5] = tested on: Rael Burkitt's lymphoma (EBV); test: [125I]FIAU imaging and tissue distribution, Rael xenografts; type: in vivo, SCID mice
Experimental: Bortezomib was always administered 24 hours before [^125I]FIAU, also intravenously. […] 2 μg/g of bortezomib stimulated the maximum target to non-target signal ratio at 96 hours after treatment in this cell line. The radioactivity depicted by the arrow in FIG. 14B at the 96 hour time point was within the tumor as shown by concurrent ex vivo gamma counting. Similar results were obtained in animals bearing another EBV(+) Burkitt cell line (Rael) xenograft. […] The percentage of injected dose per gram (% ID/g) derived from the images was 1.13±0.01 and 0.70±0.01 at 72 and 96 hours, respectively. Only one mouse was imaged with SPECT-CT, so the standard deviation (SD) values were derived from the multiple slices of each image.

KT gastric cancer (EBV) = test: [125I]FIAU imaging and tissue distribution, KT xenograft
[6] = tested on: TK143b osteosarcoma (constitutive EBV TK); test: [125I]FIAU imaging and tissue distribution, TK143b tumors
[7] = tested on: EBV(+) Burkitt's lymphoma xenografts (Akata); test: [125I]FIAU imaging and ex vivo biodistribution, EBV(+) Akata xenografts; type: in vivo, SCID mice; conditions: for % ID/g derived from SPECT-CT images, tumor: bortezomib 2 μg/g, one mouse, SD from slices; for % ID/g ± SD, Blood / % ID/g ± SD, Kidney / % ID/g ± SD, Liver / % ID/g ± SD, Muscle / % ID/g ± SD, Spleen / % ID/g ± SD, Tumor: n = 4
Experimental: 5×10^6 cells were resuspended in 200 μL Matrigel Matrix (ED Biosciences, Bedford, Mass.) and injected subcutaneously near the shoulder of 6-7-week-old male severe combined immunodeficient (SCID) mice.
All work was undertaken in accordance with the regulations of Johns Hopkins Animal Care and Use Committee. Adult male SCID mice (5-6 weeks old) were purchased from the National Cancer Institute (Frederick, Md.). Three days before imaging, all mice received 1 mL intraperitoneal (i.p.) injections of 0.9% NaI solution daily for 3 consecutive days to block the thyroid uptake of free radioiodide. Twenty four hours prior to [^125I]FIAU injection, lytic induction was initiated with bortezomib. Each mouse was injected i.p. with a dose of 2 μg/g of bortezomib. Bortezomib was made fresh in PBS and filter sterilized with a 0.2 μm syringe filter (Millipore, Billerica, Mass.) immediately before each injection. Control mice were injected i.p. with PBS alone. On the day of radiotracer injection, the animals were anesthetized with 2.3 mL/kg of a mixture of 25 mg/mL ketamine and 2 mg/mL acepromazine in 0.9% saline injected i.p. Isoflurane (0.5%-1% at 0.5-1 L/minute) was administered to maintain anesthesia.
Four mice were sacrificed at each indicated time by cervical dislocation. Tumor, liver, spleen, kidney, fat, blood, and muscle were removed and weighed after which the tissue radioactivity was measured using an automated gamma counter. A 0.1 mL sample of blood was also collected. […] The standard deviation (SD) was also calculated.
(§1) Quantitative data were not derived from the images except for once instance that employed SPECT-CT (see below). […] The detector material or scintillator crystal is composed of NaI[Tl], which has a pixel size 2 mm×2 mm×6 mm. […] The static acquisition protocol of the LumaGEM™ software provided with the X-SPECT was used.

BCBL1 lymphoma (KSHV) = test: [125I]FIAU imaging and tissue distribution, BCBL1 xenograft; type: in vivo, SCID mice
Source text: (§2) The approach observed in EBV-associated tumors is also applicable to other KSHV-associated tumors as shown in studies on two primary effusion lymphoma (PEL) cell lines that harbor KSHV. […] Finally, when induction with bortezomib was followed by treatment with [^131I]FIAU tumors regressed (FIG. 19C).

BC3 lymphoma (KSHV) = test: [125I]FIAU imaging and tissue distribution, BC3 xenograft; type: in vivo, SCID mice
Source text: as §2

[8] = tested on: EBV(−) osteosarcoma xenografts (V143b); test: [125I]FIAU imaging, V143b control tumors; type: in vivo, mice; conditions: with or without bortezomib
Source text: as §1

[9] = tested on: EBV(+) gastric adenocarcinoma (KT); test: tumor growth, EBV(+) gastric adenocarcinoma (KT) xenograft; conditions: bortezomib induction followed by [131I]FIAU
Experimental: Bortezomib was administered intravenously at 1.67 μg/gram. […] For imaging or treatment, FIAU was administered 24 hours after bortezomib. In each of the experiments described bortezomib was administered as a single dose.

[10] = tested on: EBV(+) Burkitt's lymphoma cell line (Akata); test: tumor growth, EBV(+) Burkitt's lymphoma (Akata) xenografts; type: in vivo, SCID mice; conditions: bortezomib followed by [131I]FIAU; second cell line
Experimental: (§3) Therefore, an evaluation of a therapeutic isotope was carried out. As described above, SCID mice engrafted with EBV Burkitt's lymphoma xenografts received either buffer or bortezomib followed the next day by treatment with [^131I]FIAU or no treatment. […] Thus, bortezomib allowed targeting of [^131I]FIAU with therapeutic effect. Other proteasome inhibitors are also likely to be active. Several are in clinical trial.

[11] = tested on: human osteosarcoma 143B cells expressing EBV TK; test: tumor growth, EBV-TK expressing 143B tumors; type: in vivo, mice
Experimental: To determine whether EBV-TK mediated concentration of radioisotope in tumor tissue was adequate to achieve a therapeutic effect, mice with tumors were treated with [^131I]FIAU or buffered saline (FIG. 18A-18C).
(§4) Biostatistics. Linear regression and curve fitting were undertaken carried using GraphPad Prism software version 5.00 for Windows, GraphPad Software, San Diego Calif. USA, www.graphpad.com.

[12] = tested on: KSHV(+) primary effusion lymphoma (BCBL1); test: tumor growth, KSHV(+) primary effusion lymphoma (BCBL1) xenograft; type: in vivo, SCID mice; conditions: bortezomib induction followed by [131I]FIAU
Source text: as §2

[13] = tested on: EBV(+) Burkitt's lymphoma (Rael); test: tumor growth, EBV(+) Burkitt's lymphoma (Rael) xenografts; type: in vivo, SCID mice
Experimental: as §3, §4

[14] = scale-up of mouse biodistribution data to the human, MIRD dosimetry (OLINDA)
Source text: Murine biodistribution data were converted to equivalent human data for dosimetry by assuming that the organ or tumor to whole-body concentration ratio in the mouse is equivalent to that in the human.
The initial (i.e., 2-h) activity concentration in the mouse tumor of 1.95% ID/g becomes 7×10^−4% ID/g, assuming a 1 gm tumor in the human. At this concentration, and assuming negligible biological clearance of ^131I, as shown in the biodistribution data, the absorbed dose per administered activity to a 1 gm tumor in a 70 kg human is 0.1 mGy/MBq (0.38 rad/mCi). […] The 5 to 20 GBq (135 to 540 mCi) required to deliver this dose-range is well within normal organ tolerance given the normal organ absorbed dose estimates listed in the table. A total administered activity of 20 GBq would result in 0.2 and 0.02 Gy to the kidneys and red marrow, respectively. Based on external beam and radiopeptide experience, the kidneys can tolerate 25 to 27 Gy before the onset of toxicity; the red marrow maximally tolerated dose is 2 Gy. Administration of a 540 mCi dose would likely present logistical problems, but these could be accommodated by fractioning the administration over three to four injections.

[15] = Rael, bortezomib induction, 4 days p.i., 5 μCi, N 4
[16] = KT, bortezomib induction, 4 days p.i., 5 μCi, N 3
[17] = TK143b, constitutive EBV TK, 4 days p.i., 5 μCi, N 3
[18] = bortezomib induction, 4 days p.i., 5 μCi, N 5
[19] = bortezomib induction, 5 days p.i., 5 μCi, N 3
[20] = total administered activity of 20 GBq

## O=c1[nH]c(=O)n([C@@H]2O[C@H](CO)[C@@H](O)[C@@H]2F)cc1I [FIAU, 2′-fluoro-2′-deoxy-β-D-5-iodouracil-arabinofuranoside]
[1]
  blood-brain barrier penetration: does not penetrate the blood-brain barrier
[2]
  labeled compound remaining unchanged: 97.8%±0.1%
[3]; earlier antiviral trials
  toxicity of chronic dosing: hepatic damage and in some cases fatality
[3]; treatment for less than four weeks
  cumulative dose not associated with clinical or biochemical evidence of toxicity: less than 200 mg
[4]
  no-effect dose: ~0.1 mg/kg per administration

## O=c1[nH]c(=O)n([C@@H]2O[C@H](CO)[C@@H](O)[C@@H]2F)cc1[125I] [[^125I]FIAU, [^125I]2-fluoro-2′-deoxy-beta-D-5-iodouracil-arabinofuranoside]
[5]; [15]
  % ID/g ± SD, Kidney: 0.146 ± .054 % ID/g
  % ID/g ± SD, Liver: 0.052 ± .027 % ID/g
  % ID/g ± SD, Muscle: 0.084 ± .012 % ID/g
  % ID/g ± SD, Spleen: 0.064 ± .011 % ID/g
  % ID/g ± SD, Tumor: 1.200 ± 0.356 % ID/g
[5]; following bortezomib, by 30 hours after radiopharmaceutical injection
  tumor visualization: clearly visualized
KT gastric cancer (EBV); KT tumor, 72 hours p.i., following bortezomib
  range of uptake as % ID/g (color bar), SPECT-CT: 0.68 % ID/g
KT gastric cancer (EBV); [16]
  % ID/g ± SD, Kidney: 0.090 ± 0.030 % ID/g
  % ID/g ± SD, Liver: 0.050 ± 0.017 % ID/g
  % ID/g ± SD, Muscle: 0.080 ± 0.062 % ID/g
  % ID/g ± SD, Spleen: 0.080 ± 0.035 % ID/g
  % ID/g ± SD, Tumor: 0.598 ± 0.472 % ID/g
[6]; 2-h
  initial activity concentration in the mouse tumor: 1.95 % ID/g
[6]; 2 hours post-infusion
  tumor to muscle ratio: 4.6
[6]; 24 hours post-infusion (peak)
  tumor to muscle ratio: 205
[6]; 96 hours post-infusion
  tumor to muscle ratio: 114
[6]; [17]
  % ID/g ± SD, Kidney: 0.033 ± 0.058 % ID/g
  % ID/g ± SD, Liver: 0.013 ± 0.006 % ID/g
  % ID/g ± SD, Muscle: 0.015 ± 0.014 % ID/g
  % ID/g ± SD, Spleen: 0.027 ± 0.015 % ID/g
  % ID/g ± SD, Tumor: 1.667 ± 0.681 % ID/g
[6]; cell line engineered to express constitutively the EBV-TK
  tumor imaging: readily imaged
[6]; from 2 hours until last time point at 96 hours
  radioactivity levels in the tumor: remained constant
[7]; 72 hours after radiopharmaceutical
  % ID/g derived from SPECT-CT images, tumor: 1.13±0.01 % ID/g
[7]; 96 h, bortezomib vs PBS
  increase of tumor uptake over baseline after bortezomib: ~22 fold
[7]; 96 hours after radiopharmaceutical
  % ID/g derived from SPECT-CT images, tumor: 0.70±0.01 % ID/g
[7]; Bortezomib treatment, 96 h
  % ID/g ± SD, Blood: 0.022 ± 0.010 % ID/g
  % ID/g ± SD, Kidney: 0.070 ± 0.010 % ID/g
  % ID/g ± SD, Liver: 0.016 ± 0.002 % ID/g
  % ID/g ± SD, Muscle: 0.040 ± 0.005 % ID/g
  % ID/g ± SD, Spleen: 0.060 ± 0.011 % ID/g
  % ID/g ± SD, Tumor: 0.85 % ID/g and 0.850 ± 0.102 % ID/g
[7]; PBS treatment, 96 h
  % ID/g ± SD, Blood: 0.033 ± 0.009 % ID/g
  % ID/g ± SD, Kidney: 0.068 ± 0.014 % ID/g
  % ID/g ± SD, Liver: 0.029 ± 0.011 % ID/g
  % ID/g ± SD, Muscle: 0.030 ± 0.010 % ID/g
  % ID/g ± SD, Spleen: 0.014 ± 0.006 % ID/g
  % ID/g ± SD, Tumor: 0.039 % ID/g and 0.039 ± 0.010 % ID/g
[7]; bortezomib 2 μg/g 24 hours before, 4 days postinjection
  tumor visualization, planar gamma imaging: clearly visible
[7]; postinjection, pretreated with bortezomib
  time of peak tumor uptake: 96 h
[7]; pretreated with PBS only
  tumor uptake, planar gamma imaging: no tumor uptake was evident
BCBL1 lymphoma (KSHV); 48 hours p.i., following bortezomib
  range of uptake as % ID/g (color bar), SPECT-CT: 1.53 % ID/g
BCBL1 lymphoma (KSHV); after bortezomib
  tumor imaging: allowed imaging
BCBL1 lymphoma (KSHV); [18]
  % ID/g ± SD, Kidney: 0.167 ± 0.038 % ID/g
  % ID/g ± SD, Liver: 0.0617 ± 0.022 % ID/g
  % ID/g ± SD, Muscle: 0.078 ± 0.005 % ID/g
  % ID/g ± SD, Spleen: 0.064 ± 0.014 % ID/g
  % ID/g ± SD, Tumor: 1.100 ± 0.361 % ID/g
BC3 lymphoma (KSHV); after bortezomib
  tumor imaging: allowed imaging
BC3 lymphoma (KSHV); [19]
  % ID/g ± SD, Kidney: 0.027 ± 0.003 % ID/g
  % ID/g ± SD, Liver: 0.009 ± 0.002 % ID/g
  % ID/g ± SD, Muscle: 0.008 ± 0.004 % ID/g
  % ID/g ± SD, Spleen: 0.008 ± 0.002 % ID/g
  % ID/g ± SD, Tumor: 1.213 ± 0.214 % ID/g
[8]
  tumor uptake on imaging: No tumor uptake was evident

## O=c1[nH]c(=O)n([C@@H]2O[C@H](CO)[C@@H](O)[C@@H]2F)cc1[131I] [[^131I]FIAU]
[9]
  tumor growth rate: diminished
[10]
  tumor growth: parallel results
[11]; 10% of tumor cells harbor the EBV-TK, 1.7 mCi
  tumor growth rate in chimeric tumors: substantially slowed
[11]; EBV-TK expressing tumors, 1 mCi or 3 mCi
  tumor growth dose response: increasing effects on tumor growth
[11]; TK tumors, 1.6 mCi IV
  tumor growth slope: flattened
[12]
  tumor growth: regressed
[13]; bortezomib followed 24 hours later by [131I]FIAU
  tumor growth: stopped tumor growth
[13]; buffer followed by [131I]FIAU
  tumor growth curves vs buffer alone: similar
[14]; assuming a 1 gm tumor in the human
  tumor activity concentration scaled to the human: 7×10^−4 % ID/g
[14]; [20]
  absorbed dose to the kidneys: 0.2 Gy
  absorbed dose to the red marrow: 0.02 Gy
